From patent US20160008298A1, “XANTHOHUMOL-BASED COMPOUNDS AND COMPOSITIONS THEREOF, AND METHODS OF MAKING AND USING THE SAME” (Oregon State University, priority 2014, published 2016) come the findings set out here.

In one data set the test system is mice. Put plainly: Mouse LD50. It is filed as in vivo.
The test system of the next data set is C2C12 mouse myocytes. Briefly: Cellular uptake by LC-MS/MS. Type of data set: in vitro ADME. As to conditions: 5 μM, one hour.
The subject of the next data set is C57BL6/J mice. Put plainly: Plasma metabolites at sacrifice. As to conditions: 14 weeks, 30 mg/kg/day; for Mean fasting plasma glucose at time of sacrifice: 6 hour fast, control 158.2±29.6; for Insulin level average: control 1.01±0.44; for Average plasma triglycerides: control 87.5±6.6; for Plasma cholesterol average: control 173.9±31.9. It is filed as in vivo, mouse. The protocol: The total number of C57BL6/J mice was 48, with 12 mice belonging to each of 4 treatment groups. Duration of the feeding was 14 weeks. Mouse feed contained high fat content (60% of kCal), and was supplemented with XN, DXN, or TXN in the treatment groups. XN, DXN and TXN content within the mouse diet were designed to deliver a dose of 30 mg/kg/day body weight. Food intake was measured three times per week by weighing the food pellet before placement in the cage, and at the time of feed changing by weighing uneaten food. Mice were unrestricted in dietary intake, being allowed to eat as much food as desired. Mice were weighed once per week. Groups included low dose (30 mg/kg) XN, DXN, TXN and no supplement control. Mice were maintained in accordance with the Oregon State University Institutional Animal Care and Use Committee (IACUC) regulations. One mouse was maintained on a standard AIN-93M chow diet to be used as a healthy reference during glucose tolerance assays.
Plasma was collected at sacrifice (14 weeks) to analyze for plasma glucose, triglycerides, cholesterol and insulin. Plasma glucose was assayed using the Wako Autokit Glucose kit (Wako Pure Chemical Industries, Ltd.). […] Samples were allowed to incubate for 5 minutes, and then the absorbance of each well was measured at a wavelength of 505 nm using a SpectraMax 190 spectrophotometer. Glucose was calculated using a 6-point calibration curve containing concentrations of 0, 25, 50, 100, 200 and 400 mg/dL.
Plasma triglycerides were measured using the Infinity™ Triglycerides Reagent kit (Thermo Fisher Scientific, Inc.). […] Absorbance at 500 nm was then measured on a SpectraMax 190 spectrophotometer. Triglyceride levels were calculated from a 6-point calibration curve.
Plasma cholesterol was measured using the Infinity™ Cholesterol Liquid Stable Reagent assay kit (Thermo Fisher Scientific, Inc.). Five μL of plasma from each sample was combined with 195 μL of Infinity™ Cholesterol Liquid Stable Reagent (50 mM phosphate buffer (pH 6.7) containing 200 U/L cholesterol oxidase, 500 U/L cholesterol esterase, 300 U/L peroxidase (horseradish), 0.25 mM 4-aminoantipyrine, 10 mM hydroxybenzoic acid) and incubated for 5 minutes at room temperature. Cholesterol absorbance was then measured using a SpectraMax 190 spectrophotometer at 500 nm, and concentrations were calculated using a 6-point calibration curve.
Plasma insulin levels were assayed using the ALPCO 80-INSMS-E01 mouse insulin enzyme-linked immunosorbent assay (ELISA) kit (ALPCO diagnostics, Salem, N.H.). Ten μL of plasma from each sample was loaded into a 96-well plate (provided in kit) and combined with 75 μL of provided conjugate buffer. The plate was placed on a shaker and incubated for 2 hours at room temperature while shaking at 800 rpm. The buffer was then discarded and the wells were washed 5 times with 100 μL of provided wash buffer. […] After incubation, 100 μL of stop solution was added to each well, and the plate was analyzed on a SpectraMax 190 spectrophotometer at 450 nm. Sample insulin concentrations were calculated using a 6-point calibration curve.

For data set [1], the system named is mitochondrial transmembrane potential in C2C12 cells. Put plainly: JC-1 assay of mitochondrial transmembrane potential. It is filed as cell-based, mouse. As to conditions: 5 μM, 8 μM, 25 μM and 50 μM; one hour of exposure.
Experimental: Cells were plated at a density of 80,000 cells per well in black 96-well plates and incubated for 24 hours at 37° C. (5% CO2). They were then treated with fresh solutions of various concentrations of XN, DXN or TXN in growth medium. The final concentrations of XN, DXN, TXN were 1, 2, 5, 8, 25, 50 μM, all in quadruplicate wells, in the 96-well plates. After one hour of exposure to the compounds at 37° C. (5% CO2), the cells were treated with 10 μL of a JC-1 staining solution (freshly prepared by diluting 11 fold 100 μL of the JC-1 agent furnished from the assay kit). After 15 to 30 minutes of incubation (37° C., 5% CO2), the cells were washed three times with the Cell-Based Assay Buffer (prepared by dissolving three buffer tablets of the kit in 300 mL of MilliQ water). The plates were then analyzed by a fluorescent plate reader (SpectraMax Gemini XS) at 560-595 nm and 485-535 nm.
JC-1 can selectively enter into mitochondria and reversibly change color from green to red as the membrane potential increases. In healthy cells with high mitochondrial transmembrane potential, JC-1 spontaneously forms complexes known as J-aggregates with intense red fluorescence with excitation and emission at 560 nm and 595 nm, respectively. […] The ratio of fluorescence intensity of J-aggregates to fluorescence intensity of J-monomers can be used as an indicator of cell heath or mitochondrial state. […] A decrease in the values of the ratios compared to the control is indicative of an alteration in the potential across the mitochondrial membrane.
Data set [2] can be described thus: Low and high XN diet feeding for 12 weeks, body weight and food intake. It is filed as in vivo, mouse. The following applies: high-fat fed C57BL/6J mice; for body weight gain compared to vehicle: oral, 12 weeks. As for the experimental part:
FIG. 27 is a graph showing weekly body weights of C57BL/6J mice fed control, low XN (30 mgkg body weight/day) and high XN (60 mg/kg body weight/day) diets for 12 weeks.
FIG. 28 is a graph showing no difference in food intake between treated and untreated mice for the studies from FIG. 27.

For a further data set, the system named is rats. Put plainly: XN administered to rats at human equivalent doses. It is filed as in vivo, rat. The protocol: In particular disclosed embodiments, the human equivalent dose of 180 mg XN/day reduced body weight gain by 14% and reduced fasting plasma glucose by 25% when administered to rats. In some embodiments, the human equivalent dose of 60 or 180 mg XN/day reduced the formation of products of dysfunctional fatty acid oxidation by up to 55% when administered to rats. Solely by way of example, the range 0.1-500 mg described above in Table 2 for XN covers the effective human equivalent doses of 60 mg/day to 180 mg/day of XN.

The subject of a further data set is C2C12 cells. Briefly: MTT cell viability assay. Type of data set: cell-based, mouse. The following applies: for cell viability after one hour of exposure: C2C12, 1 hour, up to 50 μM; for concentration at which cell viability was decreased: C2C12, 24 hours of exposure. The protocol: Mouse C2C12 skeletal muscle myoblasts (purchased from ATCC, Manassas, Va., USA) were first seeded in 75 cm2 flasks using a culture medium consisting of DMEM (Life Technologies, Grand Island, N.Y., USA), 10% fetal bovine serum (FBS; Atlanta Biologicals, Lawrenceville, Ga., USA), high glucose, L-glutamine, phenol red, 1 mM sodium pyruvate and 100 units/mL penicillin, 100 μg/mL streptomycin. The C2C12 cells were incubated at 37° C. in a humidified atmosphere of 5% CO2 until they were confluent. Then, they were obtained by trypsinization and seeded at a specific density in the plates of choice depending on the experiment.
For cell viability experiments (MTT assay), C2C12 cells were plated in 96-well plates at a density of 4,000 cells per well in 200 μL of growth medium (identical to the culture medium). After 48 hours of incubation, the medium was removed and the cells were treated with fresh solutions of various concentrations of XN, DXN or TXN in phenol red-free growth medium. The final concentrations of XN, DXN, TXN were 1, 2, 5, 8, 10, 25, 50 μM, all in quadruplicate wells, in the 96-well plates. The medium used consists of phenol red free DMEM (Life Technologies, Grand Island, N.Y., USA), 10% FBS, 1% glutamine, 1 mM of sodium pyruvate and 100 units/mL penicillin, 100 μg/mL streptomycin. The plates were then incubated for 24 hours or 1 hour. After removing the medium, the cells were treated with 0.5 mg/mL solution of MTT 3-(4,5-dimethylthiazol-2-yl)-2,5-diphenyltetrazolium bromide in phenol red-free growth medium and incubated for two hours. After removing the medium and adding a solution of acidified isopropanol to each well, the absorbance of each well was measured at 570 nm by using a spectrometer (SpectraMax 190).
Two MTT assays were conducted (FIGS. 11A and 11B): after one hour and 24 hours of exposure.
Background: Tetrazolium assays rely on reduction of a dye to a coloured formazan, in cell work by metabolically active cells.

For the next data set, the system named is C2C12 muscle mouse cells. Briefly: Seahorse cell titration assay. Type of data set: cell-based. As to conditions: 2 μM, 20,000 cells/well.
Setting [3] is: human equivalent dose of 180 mg XN/day.

Experimental for C2C12 mouse myocytes: Cellular uptake investigations were performed using C2C12 mouse myocytes. Cells were cultured in 75 cm2 flasks using Dulbecco's Modified Eagle Medium (DMEM) obtained from Sigma-Aldrich, which was supplemented with 10% Fetal Bovine serum (FBS) and 1% penicillin/streptomycin solution (PS). Cultures were maintained in an incubator at 37° C. and 5% CO2.
Uptake comparisons were conducted by seeding three 12-well plates with 1 mL of C2C12 cells in suspension with a density of 100,000 cells/mL, which were then incubated until confluent. Four treatment groups were compared, including XN, DXN, TXN and a no compound control. Each compound was tested in quadruplicate in the presence of cells and in medium not exposed to cells. Medium not exposed to cells was examined for compound concentration to help account for protein binding in medium. Confluent cells were subsequently treated with fresh DMEM containing 1% FBS, 1% PS, as well as 5 μM XN, DXN, or TXN and incubated at 37° C. and 5% CO2 for one hour. Following incubation, cell medium was collected and the cells were washed once using Hanks Balanced Salt Solution (HBSS). HBSS was then aspirated, and 0.5 mL of cell extraction buffer (50% methanol:ethanol, v:v) was added to each well and the plates were covered with a plastic adhesive plate cover. The plates were placed in a freezer and maintained at −80° C. for 24 hours. After freezing, the plates were removed from the freezer and the cells were removed from the wells using a cell scraper and collected. An additional 0.5 mL of extraction buffer was added to each well as a rinse, which was collected and added to the cell extracts. […]
All cell culture samples were analyzed by LC-MS/MS using an Applied Biosystems API 4000 Q-trap triple quadrupole mass spectrometer. […] Once concentrations could be determined, mass balance of XN, DXN or TXN was calculated based on the average total volume of the sample, approximately 0.995 mL for cell medium, and 0.75 mL for cellular extracts.
Experimental for C2C12 muscle mouse cells: As advised by Seahorce Bioscience, running a cell titration assay with FCCP at different concentrations prior to any Seahorse experiment is an important step to determine proper cell density for the cell line used. Then, oligomycin was tested at different concentrations at the proper cell density in order to determine the optimal working concentration. These optimization and titration assays offered starting conditions in determining the uncoupling effects on the mitochondria.
In the cell titration assay, cells were plated at 10,000, 20,000 and 40,000 cells/wells and FCCP was injected at 0.3 μM or 0.5 μM. […] DXN was also injected at 2 μM at 20,000 cells/well to have an idea of its potential effects on OCR.

Turning to `COc1cc(O)c(CC=C(C)C)c(O)c1C(=O)/C=C/c1ccc(O)cc1` [XN, xanthohumol], the “LD50 dose relative to the effective dose level” value in the data set with mice is “more than 50 times”. Further, in the data set with C2C12 mouse myocytes, the “cellular uptake (of total amount of compound applied to cells)” value (“cellular uptake” below) is “approximately 6.6%”. Also, in the data set on C57BL6/J mice, the “Mean fasting plasma glucose at time of sacrifice” value (“Mean fasting plasma glucose” for short) is 169.1 ± 28.7 mg/dL, the Insulin level average was 1.19 ± 0.68 ng/mL, the Average plasma triglycerides was determined as 80.7 ± 4.2 mg/dL and the Plasma cholesterol average was determined as 196.2 ± 28.3 mg/dL. In addition, in data set [1], the “ratio of aggregates to monomers (JC-1) versus control” value (from here on “ratio of aggregates to monomers”) is listed as “changed significantly from the control values”. The food intake entry in data set [2] (30 and 60 mg/kg) is “not altered”. The “body weight gain compared to vehicle” value in data set [2] (30 mg/kg (low dose)) is reported as “gain less weight”. The “body weight gain compared to vehicle” value in data set [2] (60 mg/kg (high dose)) is reported as “gain less weight”. In the data set on rats (setting [3]), the “reduction of body weight gain” value is reported as 14% and the “reduction of fasting plasma glucose” value is on record as 25%. Further, the “reduction of the formation of products of dysfunctional fatty acid oxidation” value in the data set on rats (human equivalent dose of 60 or 180 mg XN/day) is “up to 55%”. In addition, in the data set on C2C12 cells, the “cell viability after one hour of exposure” value (“cell viability … of exposure” below) is “did not significantly affect cell viability” and the “concentration at which cell viability was decreased” value worked out at 50 µM.

`COc1cc(O)c(CC=C(C)C)c(O)c1C(=O)CCc1ccc(O)cc1` [DXN, α,β-dihydroxanthohumol]: in the data set on C2C12 mouse myocytes, the “cellular uptake” value was found to be 7.8%. For the same compound, in the data set with C57BL6/J mice, the “Mean fasting plasma glucose” value came out at 150.5 ± 45.0 mg/dL, the Insulin level average was determined as 1.04 ± 0.77 ng/mL, the Average plasma triglycerides is 84.5 ± 4.9 mg/dL and the Plasma cholesterol average was found to be 167.2 ± 33.3 mg/dL. Also, the “increase of OCR” value in the data set on C2C12 muscle mouse cells is listed as 204 % of the baseline. Further, in data set [1], the “ratio of aggregates to monomers” value is given as “changed significantly from the control values”. Further, in the data set on C2C12 cells, the “cell viability … of exposure” value is on record as “did not significantly affect cell viability” and the “concentration at which cell viability was decreased” value worked out at 8 µM.

For `COc1cc(O)c(CCC(C)C)c(O)c1C(=O)CCc1ccc(O)cc1` [TXN, tetrahydroxanthohumol], in the data set with C2C12 mouse myocytes, the “cellular uptake” value is reported as 6.9%. Further, in the data set on C57BL6/J mice, the “Mean fasting plasma glucose” value amounted to 116.1 ± 24.1 mg/dL, the Insulin level average came out at 0.500 ± 0.24 ng/mL, the Average plasma triglycerides turned out to be 76.4 ± 7.8 mg/dL and the Plasma cholesterol average was found to be 160.7 ± 30.7 mg/dL. The “ratio of aggregates to monomers” value in data set [1] is “changed significantly from the control values”. For the same compound, in the data set with C2C12 cells, the “cell viability … of exposure” value was “did not significantly affect cell viability” and the “concentration at which cell viability was decreased” value was 25 µM.
